Results reported in patent US6475479B1, “Terpenes for reducing the effect of pheromone on lepidoptera” (BASF Aktiengesellschaft, priority 1995, dated 2002).

Tests used:
[1] = test system: Lobesia males; experiment: Laboratory wind tunnel preference test with pheromone-lured electric traps; type: in vivo; settings: cartridges with 30 μl E7,Z9-dodecadien-1-yl acetate 10^-4 g/g silicone oil plus citral 10^-1 g/g silicone oil, relative to standard (pheromone alone) set equal to one
Description: Laboratory Wind Tunnel 4 electric traps up to […] in size were installed in a laboratory wind tunnel. As electric traps, commercially available electric insect capture appliances were rebuilt to give recording lure traps. The fluorescent tube normally responsible for the attractant action was replaced by a scent source. To avoid positional effects, the four traps were […]. The wheel rim was rotated by means of a motor having a speed of two revolutions per hour (once around its own axis and back), so that the traps continuously changed position. […] The number of moths trapped in each case was determined daily. By means of the number of moths trapped in the individual traps, the attractiveness of the particular lure was determined (preference test). The influence of various dilutions of E7,Z9-dodecadien-1-yl acetate was determined by setting the number of moths in the most common trap equal to one; the capturing ability of the other traps was calculated relative to this. […] The recapture rate of the standard was set equal to one and that of the traps with the terpene additive was calculated relative to this.

[2] = test system: Lobesia males; experiment: Outdoor wind tunnels over vine rows, simulated mating disruption; type: in vivo
Description: In spring 1994 two outdoor wind tunnels were built over a row of vines in each case in an experimental field of the SLFA Neustadt. These were aluminum scaffoldings 2 m high, 2 m wide and 10 m long.
The front and back were covered with mosquito nets made of cotton (mesh width 1.5×1.5 mm); 50μ thick polyethylene film lay over the entire length.
Air was blown into the interior through a ventilator at the front of the tunnel.
Two traps each were attached at a height of approximately 60 cm in the interior of the two wind tunnels on the ventilator side. The traps were lured with E7,Z9-dodecadien-1-yl acetate. Tunnel 1 remained untreated and served as a control. To simulate a mating disruption situation, 10 filter papers were uniformly distributed at various heights (20-120 cm) in tunnel 2 along the row of grapevines. 1 ml of citral solution in silicone oil with a dilution of 10^−1 g/g was in each case added dropwise to these in order to achieve a uniform concentration of the substance in the interior. A specific number of Lobesia males were in each case set free on the sides of the two wind tunnels opposite to the ventilator sides. After the end of the experiment, the Lobesia males captured in the traps were counted and the recapture rate was determined.

CC(C)=CCCC(C)=CC=O [citral]
inhibition of the recapture rate [1]: 90%
Recapture rate ([2]; ratio of captured to released Lobesia males, traps lured with E7,Z9-dodecadien-1-yl acetate, 10 filter papers each with 1 ml citral solution 10^-1 g/g in silicone oil in the tunnel): 0.01
inhibition of the recapture rate ([2]; tunnel 2 (citral, 10 filter papers, 1 ml of 10^-1 g/g in silicone oil) versus untreated control tunnel 1): 94.5%
